Tested on: Female Balb/C mice
Assay: Adjuvant activity in mice, HBsAg model, serum ELISA antibody titers
Settings: for HBsAg-specific serum IgG: HBsAg administered IM with adjuvant; for Anti-HBsAg titers compared with the nonadjuvanted benchmark: mice vaccinated IM
Method: This objective of this study was to evaluate the potential of STING agonists of the present invention to function as adjuvants in mice using the HBsAg model.
Female Balb/C Mice were Vaccinated IM
Vaccines were delivered intramuscularly two times at 21 day intervals, and sera were evaluated for systemic antibody responses. Spleens (3 mice/group) were collected for Luminex/ICS analysis.
Sera were harvested 14dp1 and 14dp2 vaccination. Serum was evaluated by ELISA for anti-HBsAg IgG, IgG1, and IgG2a titers.

| Structure (SMILES) | HBsAg-specific serum IgG | HBsAg-specific IgG levels, dose response (four doses, IM) | Anti-HBsAg titers compared with the nonadjuvanted benchmark | antibody titers compared with cGAMP (relative to dose) |
| --- | --- | --- | --- | --- |
| Nc1nc2c(ncn2[C@@H]2O[C@@H]3COP(=O)(O)O[C@H]4[C@@H](F)[C@H](n5cnc6c(N)ncnc65)O[C@@H]4COP(=O)(O)O[C@@H]2[C@@H]3O)c(=O)[nH]1 [Example 1, (1R,6R,8R,9R,10R,15R,17R,18R)-17-(2-Amino-6-oxo-6,9-dihydro-1H-purin-9-yl)-8-(6-amino-9H-purin-9-yl)-9-fluoro-3,12,18-trihydroxy-2,4,7,11,13,16-hexaoxa-3λ^5,12λ^5-diphosphatricyclo[13.2.1.0^6,10]octadecane-3,12-dione] | high levels | dose responsive | significantly higher | no significant differences |
| Nc1nc2c(ncn2[C@@H]2O[C@@H]3COP(=O)(O)O[C@H]4[C@@H](O)[C@H](n5cnc6c(N)ncnc65)O[C@@H]4COP(=O)(O)O[C@@H]2[C@@H]3O)c(=O)[nH]1 [cGAMP, reference compound] | high levels |  | significantly higher |  |

— patent US10047115B2, “Cyclic dinucleotides useful for the treatment of inter alia cancer” (priority 2015, dated 2018)
